Results as given in the supplement of paper PMC10307832.

Legend:
Experiment in all cases: relative viability (nuclei count vs DMSO), 5 days (fraction); higher = more cells survive
[1] = compound: CN(C)C[C@@H]1CCn2cc(c3ccccc32)C2=C(C(=O)NC2=O)c2cn(c3ccccc23)CCO1 [Ruboxistaurin]
How it was run: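 Nuclei counted with MetaXpress define viability as the ratio of treated to vehicle wells, given as a median across plates. The lung cancer cell lines were in 1536-well plates, pinned with five √10-spaced library-drug doses and imaged at 4× after 5 days and Hoechst staining. Plates passed with control CV below 25% and at least one doubling.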

[2] = compound: CN(C)C[C@@H]1CCn2cc(c3ccccc32)C2=C(C(=O)NC2=O)c2cn(c3ccccc23)CCO1 [Ruboxistaurin] + Nc1nc2[nH]cc(CCc3ccc(C(=O)N[C@@H](CCC(=O)O)C(=O)O)cc3)c2c(=O)[nH]1 [Pemetrexed] (partner 0.2 µM)
How it was run: (§1)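 Relative viability equals treated-well nuclei counts divided by vehicle-well nuclei counts. Counts came from 4× images of lung cancer cell lines grown in 1536-well plates for 5 days after pin-tool dosing on the day after seeding. Dosing used one drug alone or a fixed anchor-drug dose plus five library-drug doses (not always all listed) in √10 steps, and values are medians of duplicate plates.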

[3] = compound: CN(C)C[C@@H]1CCn2cc(c3ccccc32)C2=C(C(=O)NC2=O)c2cn(c3ccccc23)CCO1 [Ruboxistaurin] + COc1cccc2cc(-c3nc([C@H]4CC[C@H](C(=O)O)CC4)n4ncnc(N)c34)[nH]c12 [OSI-027] (partner 0.5 µM)
How it was run: as §1

[4] = compound: CN(C)C[C@@H]1CCn2cc(c3ccccc32)C2=C(C(=O)NC2=O)c2cn(c3ccccc23)CCO1 [Ruboxistaurin] + O=C(CCCCCCC(=O)Nc1ccccc1)NO [Vorinostat] (partner 1 µM)
How it was run: as §1

[5] = compound: CN(C)C[C@@H]1CCn2cc(c3ccccc32)C2=C(C(=O)NC2=O)c2cn(c3ccccc23)CCO1 [Ruboxistaurin] + NC(=O)Nc1cc(-c2cccc(F)c2)sc1C(=O)N[C@H]1CCCNC1 [AZD7762] (partner 0.2 µM)
How it was run: as §1

[6] = compound: CN(C)C[C@@H]1CCn2cc(c3ccccc32)C2=C(C(=O)NC2=O)c2cn(c3ccccc23)CCO1 [Ruboxistaurin] + CC(=O)Nc1cccc(-n2c(=O)n(C3CC3)c(=O)c3c(Nc4ccc(I)cc4F)n(C)c(=O)c(C)c32)c1 [Trametinib] (partner 0.02 µM)
How it was run: as §1

[7] = compound: CN(C)C[C@@H]1CCn2cc(c3ccccc32)C2=C(C(=O)NC2=O)c2cn(c3ccccc23)CCO1 [Ruboxistaurin] + Nc1ncn([C@H]2C[C@H](O)[C@@H](CO)O2)c(=O)n1 [Decitabine] (partner 2 µM)
How it was run: as §1

[8] = compound: CN(C)C[C@@H]1CCn2cc(c3ccccc32)C2=C(C(=O)NC2=O)c2cn(c3ccccc23)CCO1 [Ruboxistaurin] + CC(=O)c1c(C)c2cnc(Nc3ccc(N4CCNCC4)cn3)nc2n(C2CCCC2)c1=O [Palbociclib] (partner 0.5 µM)
How it was run: as §1

[9] = compound: CN(C)C[C@@H]1CCn2cc(c3ccccc32)C2=C(C(=O)NC2=O)c2cn(c3ccccc23)CCO1 [Ruboxistaurin] + Cc1cc(Nc2cc(N3CCN(C)CC3)nc(Sc3ccc(NC(=O)C4CC4)cc3)n2)n[nH]1 [Tozasertib] (partner 0.1 µM)
How it was run: as §1

[10] = compound: CN(C)C[C@@H]1CCn2cc(c3ccccc32)C2=C(C(=O)NC2=O)c2cn(c3ccccc23)CCO1 [Ruboxistaurin] + O=C(c1cc(Cc2n[nH]c(=O)c3ccccc23)ccc1F)N1CCN(C(=O)C2CC2)CC1 [Olaparib] (partner 8 µM)
How it was run: as §1

[11] = compound: CN(C)C[C@@H]1CCn2cc(c3ccccc32)C2=C(C(=O)NC2=O)c2cn(c3ccccc23)CCO1 [Ruboxistaurin] + Cc1nc(Nc2ncc(C(=O)Nc3c(C)cccc3Cl)s2)cc(N2CCN(CCO)CC2)n1 [Dasatinib] (partner 0.075 µM)
How it was run: as §1

[12] = compound: CN(C)C[C@@H]1CCn2cc(c3ccccc32)C2=C(C(=O)NC2=O)c2cn(c3ccccc23)CCO1 [Ruboxistaurin] + N=C(N)NC(=N)NCCc1ccccc1 [Phenformin] (partner 250 µM)
How it was run: as §1

[13] = compound: CN(C)C[C@@H]1CCn2cc(c3ccccc32)C2=C(C(=O)NC2=O)c2cn(c3ccccc23)CCO1 [Ruboxistaurin] + COc1cc2c(Oc3ccc(NC(=O)C4(C(=O)Nc5ccc(F)cc5)CC4)cc3F)ccnc2cc1OCCCN1CCOCC1 [Foretinib] (partner 0.25 µM)
How it was run: as §1

[14] = compound: CN(C)C[C@@H]1CCn2cc(c3ccccc32)C2=C(C(=O)NC2=O)c2cn(c3ccccc23)CCO1 [Ruboxistaurin] + CCNC(=O)c1noc(-c2cc(C(C)C)c(O)cc2O)c1-c1ccc(CN2CCOCC2)cc1 [Luminespib] (partner 0.01 µM)
How it was run: as §1

## NCI-H1648
[1]; 0.08 µM
  relative viability: 0.894
[1]; 0.8 µM
  relative viability: 0.966
[1]; 2.53 µM
  relative viability: 1.11
[1]; 8 µM
  relative viability: 1.15
[2]; first compound 0.08 µM
  relative viability: 0.699
[2]; first compound 0.8 µM
  relative viability: 0.717
[2]; first compound 2.53 µM
  relative viability: 0.612
[2]; first compound 8 µM
  relative viability: 0.894
[3]; first compound 0.08 µM
  relative viability: 0.246
[3]; first compound 0.8 µM
  relative viability: 0.278
[3]; first compound 2.53 µM
  relative viability: 0.291
[3]; first compound 8 µM
  relative viability: 0.274
[4]; first compound 0.08 µM
  relative viability: 0.622
[4]; first compound 0.8 µM
  relative viability: 0.433
[4]; first compound 2.53 µM
  relative viability: 0.425
[4]; first compound 8 µM
  relative viability: 0.634
[5]; first compound 0.08 µM
  relative viability: 0.621
[5]; first compound 0.8 µM
  relative viability: 0.591
[5]; first compound 2.53 µM
  relative viability: 0.835
[5]; first compound 8 µM
  relative viability: 0.865
[6]; first compound 0.08 µM
  relative viability: 0.643
[6]; first compound 0.8 µM
  relative viability: 0.53
[6]; first compound 2.53 µM
  relative viability: 0.455
[6]; first compound 8 µM
  relative viability: 0.681
[7]; first compound 0.08 µM
  relative viability: 0.514
[7]; first compound 0.8 µM
  relative viability: 0.501
[7]; first compound 2.53 µM
  relative viability: 0.44
[7]; first compound 8 µM
  relative viability: 0.536
[8]; first compound 0.08 µM
  relative viability: 0.248
[8]; first compound 0.8 µM
  relative viability: 0.254
[8]; first compound 2.53 µM
  relative viability: 0.285
[8]; first compound 8 µM
  relative viability: 0.247
[9]; first compound 0.08 µM
  relative viability: 0.439
[9]; first compound 0.8 µM
  relative viability: 0.438
[9]; first compound 2.53 µM
  relative viability: 0.482
[9]; first compound 8 µM
  relative viability: 0.792
[10]; first compound 0.08 µM
  relative viability: 1.33
[10]; first compound 0.8 µM
  relative viability: 0.64
[10]; first compound 2.53 µM
  relative viability: 0.797
[10]; first compound 8 µM
  relative viability: 1.22

## NCI-H2342
[1]; 0.08 µM
  relative viability: 1.02
[1]; 0.8 µM
  relative viability: 0.915
[1]; 2.53 µM
  relative viability: 1.06
[1]; 8 µM
  relative viability: 1.04
[11]; first compound 0.08 µM
  relative viability: 0.364
[11]; first compound 0.8 µM
  relative viability: 0.312
[11]; first compound 2.53 µM
  relative viability: 0.303
[11]; first compound 8 µM
  relative viability: 0.277
[2]; first compound 0.08 µM
  relative viability: 0.793
[2]; first compound 0.8 µM
  relative viability: 0.825
[2]; first compound 2.53 µM
  relative viability: 0.874
[2]; first compound 8 µM
  relative viability: 0.817
[3]; first compound 0.08 µM
  relative viability: 0.678
[3]; first compound 0.8 µM
  relative viability: 0.672
[3]; first compound 2.53 µM
  relative viability: 0.608
[3]; first compound 8 µM
  relative viability: 0.698
[4]; first compound 0.08 µM
  relative viability: 0.888
[4]; first compound 0.8 µM
  relative viability: 0.69
[4]; first compound 2.53 µM
  relative viability: 0.768
[4]; first compound 8 µM
  relative viability: 0.93
[12]; first compound 0.08 µM
  relative viability: 0.626
[12]; first compound 0.8 µM
  relative viability: 0.585
[12]; first compound 2.53 µM
  relative viability: 0.616
[12]; first compound 8 µM
  relative viability: 0.597
[5]; first compound 0.08 µM
  relative viability: 0.535
[5]; first compound 0.8 µM
  relative viability: 0.509
[5]; first compound 2.53 µM
  relative viability: 0.529
[5]; first compound 8 µM
  relative viability: 0.582
[6]; first compound 0.08 µM
  relative viability: 0.799
[6]; first compound 0.8 µM
  relative viability: 0.849
[6]; first compound 2.53 µM
  relative viability: 0.986
[6]; first compound 8 µM
  relative viability: 0.95
[13]; first compound 0.08 µM
  relative viability: 1.2
[13]; first compound 0.8 µM
  relative viability: 0.83
[13]; first compound 2.53 µM
  relative viability: 1.06
[13]; first compound 8 µM
  relative viability: 1.18
[7]; first compound 0.08 µM
  relative viability: 0.689
[7]; first compound 0.8 µM
  relative viability: 0.737
[7]; first compound 2.53 µM
  relative viability: 0.757
[7]; first compound 8 µM
  relative viability: 0.819
[8]; first compound 0.08 µM
  relative viability: 0.456
[8]; first compound 0.8 µM
  relative viability: 0.53
[8]; first compound 2.53 µM
  relative viability: 0.512
[8]; first compound 8 µM
  relative viability: 0.518
[9]; first compound 0.08 µM
  relative viability: 0.578
[9]; first compound 0.8 µM
  relative viability: 0.56
[9]; first compound 2.53 µM
  relative viability: 0.461
[9]; first compound 8 µM
  relative viability: 0.497
[10]; first compound 0.08 µM
  relative viability: 0.414
[10]; first compound 0.8 µM
  relative viability: 0.483
[10]; first compound 2.53 µM
  relative viability: 0.511
[10]; first compound 8 µM
  relative viability: 0.436
[14]; first compound 0.08 µM
  relative viability: 0.762
[14]; first compound 0.8 µM
  relative viability: 0.732
[14]; first compound 2.53 µM
  relative viability: 0.892
[14]; first compound 8 µM
  relative viability: 0.738

## NCI-H522
[1]; 0.08 µM
  relative viability: 0.949
[1]; 0.8 µM
  relative viability: 1.05
[1]; 2.53 µM
  relative viability: 0.869
[1]; 8 µM
  relative viability: 0.892
[11]; first compound 0.08 µM
  relative viability: 0.835
[11]; first compound 0.8 µM
  relative viability: 0.83
[11]; first compound 2.53 µM
  relative viability: 0.953
[11]; first compound 8 µM
  relative viability: 0.719
[2]; first compound 0.08 µM
  relative viability: 1.06
[2]; first compound 0.8 µM
  relative viability: 0.791
[2]; first compound 2.53 µM
  relative viability: 1.18
[2]; first compound 8 µM
  relative viability: 1.02
[3]; first compound 0.08 µM
  relative viability: 0.741
[3]; first compound 0.8 µM
  relative viability: 0.783
[3]; first compound 2.53 µM
  relative viability: 0.909
[3]; first compound 8 µM
  relative viability: 0.689
[4]; first compound 0.08 µM
  relative viability: 1.01
[4]; first compound 0.8 µM
  relative viability: 0.9
[4]; first compound 2.53 µM
  relative viability: 1.05
[4]; first compound 8 µM
  relative viability: 0.931
[12]; first compound 0.08 µM
  relative viability: 0.675
[12]; first compound 0.8 µM
  relative viability: 0.605
[12]; first compound 2.53 µM
  relative viability: 0.703
[12]; first compound 8 µM
  relative viability: 0.622
[5]; first compound 0.08 µM
  relative viability: 0.987
[5]; first compound 0.8 µM
  relative viability: 0.804
[5]; first compound 2.53 µM
  relative viability: 0.833
[5]; first compound 8 µM
  relative viability: 0.81
[6]; first compound 0.08 µM
  relative viability: 0.767
[6]; first compound 0.8 µM
  relative viability: 0.586
[6]; first compound 2.53 µM
  relative viability: 0.754
[6]; first compound 8 µM
  relative viability: 0.764
[7]; first compound 0.08 µM
  relative viability: 0.753
[7]; first compound 0.8 µM
  relative viability: 0.671
[7]; first compound 2.53 µM
  relative viability: 0.667
[7]; first compound 8 µM
  relative viability: 0.658
[8]; first compound 0.08 µM
  relative viability: 1.06
[8]; first compound 0.8 µM
  relative viability: 1.06
[8]; first compound 2.53 µM
  relative viability: 1.21
[8]; first compound 8 µM
  relative viability: 1.25
[9]; first compound 0.08 µM
  relative viability: 0.502
[9]; first compound 0.8 µM
  relative viability: 0.502
[9]; first compound 2.53 µM
  relative viability: 0.563
[9]; first compound 8 µM
  relative viability: 0.524
[10]; first compound 0.08 µM
  relative viability: 0.71
[10]; first compound 0.8 µM
  relative viability: 0.676
[10]; first compound 2.53 µM
  relative viability: 0.637
[10]; first compound 8 µM
  relative viability: 0.728
[14]; first compound 0.08 µM
  relative viability: 1.23
[14]; first compound 0.8 µM
  relative viability: 1.1
[14]; first compound 2.53 µM
  relative viability: 0.974
[14]; first compound 8 µM
  relative viability: 1.04
